# Measured values reported in patent publication US9732075B2, “Benzimidazole-proline derivatives” (IDORSIA PHARMACEUTICALS LTD, priority 2012, dated 2017).
# Assays:
# human orexin-1 receptor = human orexin-1 receptor (Homo sapiens (Human), UniProt O43613); test: In vitro assay: intracellular calcium measurements (FLIPR), antagonistic activity; type: cell-based; conditions: CHO cells expressing human orexin-1 receptor, orexin-A agonist, geometric mean, read-out: IC50 Ox1
# Outline: (§1)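 Orexin-A-evoked calcium rise (3 nM final, roughly EC70) was recorded with fluo-4 in recombinant CHO cells, human receptor subtype 1 or 2.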
# human orexin-2 receptor = human orexin-2 receptor (Homo sapiens (Human), UniProt O43614); test: as above; type: cell-based; conditions: CHO cells expressing human orexin-2 receptor, orexin-A agonist, geometric mean, read-out: IC50 Ox2
# Outline: as §1
# Sequence of human orexin-1 receptor (O43613 whole entry): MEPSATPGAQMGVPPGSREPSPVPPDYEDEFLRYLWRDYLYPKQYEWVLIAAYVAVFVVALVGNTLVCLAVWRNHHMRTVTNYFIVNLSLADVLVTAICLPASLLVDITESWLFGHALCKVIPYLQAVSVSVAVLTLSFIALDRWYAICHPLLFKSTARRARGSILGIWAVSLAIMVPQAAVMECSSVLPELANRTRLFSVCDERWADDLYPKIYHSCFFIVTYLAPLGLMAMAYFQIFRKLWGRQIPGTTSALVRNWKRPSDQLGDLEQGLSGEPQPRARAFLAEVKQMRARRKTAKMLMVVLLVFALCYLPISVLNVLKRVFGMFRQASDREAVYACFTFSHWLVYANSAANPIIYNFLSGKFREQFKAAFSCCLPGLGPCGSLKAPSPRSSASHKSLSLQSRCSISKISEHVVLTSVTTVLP
# Sequence of human orexin-2 receptor (O43614 whole entry): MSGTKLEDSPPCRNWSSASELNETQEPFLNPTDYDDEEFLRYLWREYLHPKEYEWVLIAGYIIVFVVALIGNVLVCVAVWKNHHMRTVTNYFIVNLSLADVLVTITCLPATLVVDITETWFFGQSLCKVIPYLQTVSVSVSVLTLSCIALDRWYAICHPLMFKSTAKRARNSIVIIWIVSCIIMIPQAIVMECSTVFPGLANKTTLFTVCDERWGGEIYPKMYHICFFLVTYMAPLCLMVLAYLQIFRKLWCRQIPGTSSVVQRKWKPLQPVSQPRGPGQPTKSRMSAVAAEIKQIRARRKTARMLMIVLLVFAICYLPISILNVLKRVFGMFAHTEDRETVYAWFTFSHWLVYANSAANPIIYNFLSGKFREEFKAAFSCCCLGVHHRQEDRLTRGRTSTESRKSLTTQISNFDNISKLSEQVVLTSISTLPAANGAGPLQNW
SMILES,IC50 (human orexin-1 receptor),IC50 (human orexin-2 receptor)
C=C1CC(c2nc3cc(SC)ccc3[nH]2)N(C(=O)c2cc(C)sc2-c2ccc(C)c(C)c2)C1 (stereo not drawn) [Ex. 6.73],10 nM,4 nM
Cc1ccc(-c2ccccc2F)c(C(=O)N2CCC[C@@]2(C)c2nc3cc(C)c(C)cc3n2C)c1 [Ex. 7.43],24 nM,42 nM
COc1cc2nc([C@]3(C)CCCN3C(=O)c3cc(C)c(C)cc3-n3nccn3)n(C)c2cc1OC [Ex. 7.13],21 nM,49 nM
COc1cc2nc([C@]3(C)CCCN3C(=O)c3cc(C(F)(F)F)ccc3-n3nccn3)[nH]c2cc1OC [Ex. 5.71],56 nM,22 nM
Cc1ccc(-c2ccc(C)cc2C(=O)N2CCC[C@@]2(C)c2nc3c(C)c(C)ccc3[nH]2)cc1 [Ex. 5.113],12 nM,15 nM
C=C1C[C@@H](c2nc3cccc(C)c3[nH]2)N(C(=O)c2cc(C)c(C)cc2-n2nccn2)C1 [Ex. 6.108],414 nM,7 nM
C=C1CC(c2nc3c(Br)cccc3[nH]2)N(C(=O)c2nc(C3CC3)sc2-c2cccc(C)c2)C1 (stereo not drawn) [Ex. 6.93],0.9 nM,3 nM
Cc1c(Cl)ccc2[nH]c([C@]3(C)CCCN3C(=O)c3nc(-c4cc(F)ccc4F)sc3-c3ccc(F)cc3)nc12 [Ex. 5.261],4 nM,466 nM
C=C1CC(c2nc3cc(Cl)c(C)cc3[nH]2)N(C(=O)c2nc(C3CC3)sc2-c2cccc(C)c2)C1 (racemic) [Ex. 6.95],9 nM,2 nM
CO[C@H]1CN(C(=O)c2c(-n3nccn3)ccc(C)c2F)C(C)(c2nc3c(C)c(Cl)ccc3[nH]2)C1 (stereo partly drawn) [Ex. 3.47],225 nM,471 nM
C=C1C[C@@H](c2nc3cc(Cl)c(C(F)(F)F)cc3[nH]2)N(C(=O)c2nc(C)ccc2-n2nccn2)C1 [Ex. 6.190],10 nM,9 nM
Cc1ccc(-c2cccc(F)c2)c(C(=O)N2CCC[C@@]2(C)c2nc3cc(C)c(C)cc3n2CCF)c1 [Ex. 7.35],6 nM,20 nM
Cc1ccc(-n2nccn2)c(C(=O)N2CCC[C@@]2(C)c2nc3cc(Cl)ccc3[nH]2)c1 [Ex. 5.11],29 nM,413 nM
COc1cc2nc([C@]3(C)CCCN3C(=O)c3cc(C)ccc3-n3nccn3)n(CC3CC3)c2cc1OC [Ex. 7.47],39 nM,60 nM
Cc1ccc(-n2nccn2)c(C(=O)N2CCC[C@@]2(C)c2nc3c(C)cccc3[nH]2)c1 [Ex. 5.6],32 nM,59 nM
Cc1cccc(-c2ccccc2C(=O)N2CCC[C@@]2(C)c2nc3c(C)c(C)ccc3[nH]2)c1 [Ex. 5.118],25 nM,35 nM
CSc1cccc2nc([C@@H]3CCCN3C(=O)c3nc(C4CC4)sc3-c3ccccc3)[nH]c12 [Ex. 1.61],21 nM,21 nM
Cc1nc(C(=O)N2CCC[C@@]2(C)c2nc3ccc(F)c(F)c3[nH]2)c(-c2ccc(F)cc2)s1 [Ex. 5.208],53 nM,284 nM
COc1ccc(-c2ccccc2C(=O)N2CCC[C@@]2(C)c2nc3c(C)c(C)ccc3[nH]2)cc1 [Ex. 5.119],30 nM,29 nM
Cc1cccc(-c2ccc(C)cc2C(=O)N2CCC[C@@]2(C)c2nc3cc(C)c(C)cc3[nH]2)c1 [Ex. 5.99],6 nM,11 nM
CSc1cccc2nc([C@@H]3CCCN3C(=O)c3cc(C#N)ccc3-n3nccn3)[nH]c12 [Ex. 1.167],97 nM,15 nM

# Results, then the compound that gave them:
IC50 (human orexin-1 receptor),IC50 (human orexin-2 receptor),SMILES
14 nM,51 nM,COc1cc2nc([C@@H]3[C@@H](C)CCN3C(=O)c3ccc(C)cc3-n3nccn3)[nH]c2cc1OC [Ex. 4.46]
67 nM,45 nM,CSc1ccc2[nH]c([C@@H]3CCCN3C(=O)c3nc(C)sc3-c3cccc(Cl)c3)nc2c1 [Ex. 1.15]
146 nM,80 nM,C=C1C[C@@H](c2nc3cc(OC)ccc3[nH]2)N(C(=O)c2nc(C3CC3)sc2-c2ccc(C)cc2)C1 [Ex. 6.35]
0.9 nM,251 nM,Cc1nc(C(=O)N2CC[C@H](C)[C@H]2c2nc3c(C)c(Cl)ccc3[nH]2)c(-c2cc(F)cc(F)c2)s1 [Ex. 4.67]
391 nM,1320 nM,COc1cc2nc([C@@H]3[C@@H](C)CCN3C(=O)c3c(C)cccc3-n3nccn3)[nH]c2cc1OC [Ex. 4.48]
263 nM,65 nM,CCc1ccc(-c2sc(C)nc2C(=O)N2CCC[C@H]2c2nc3ccc(SC)cc3[nH]2)cc1 [Ex. 1.42]
1 nM,250 nM,Cc1cc(C)c2nc([C@@H]3[C@@H](C)CCN3C(=O)c3nc(C)sc3-c3cccc(Cl)c3)[nH]c2c1 [Ex. 4.16]
39 nM,97 nM,COc1ccc(-n2nccn2)c(C(=O)N2CC[C@H](C)[C@H]2c2nc3cc(OC)c(OC)cc3[nH]2)c1 [Ex. 4.43]
39 nM,73 nM,Cc1nc(C(=O)N2CCCC2c2nc3c(Cl)cc(C(F)(F)F)cc3[nH]2)c(-c2ccccc2)s1 (stereo not drawn) [Ex. 1.125]
4 nM,2 nM,C=C1CC(c2nc3c(C)c(C)ccc3[nH]2)N(C(=O)c2nc(C3CC3)sc2-c2cccc(C)c2)C1 (racemic) [Ex. 6.92]
37 nM,48 nM,Cc1nc(C(=O)N2CCCC2c2nc3cc(Br)cc(C)c3[nH]2)c(-c2ccccc2)s1 (stereo not drawn) [Ex. 1.131]
13 nM,9650 nM,COc1ccccc1-c1sc(C)nc1C(=O)N1CC[C@H](C)[C@H]1c1nc2cc(C(F)(F)F)ccc2[nH]1 [Ex. 4.147]
6 nM,180 nM,Cc1nc(C(=O)N2CC[C@H](C)[C@H]2c2nc3c(C(F)(F)F)cccc3[nH]2)c(-c2ccc(Cl)cc2)s1 [Ex. 4.150]
17 nM,31 nM,Cc1nc(C(=O)N2CCCC2c2nc3c(Br)cccc3[nH]2)c(-c2cccc(Cl)c2)s1 (stereo not drawn) [Ex. 1.106]
17 nM,1290 nM,Cc1ccc(-n2cccn2)c(C(=O)N2CC[C@H](C)[C@H]2c2nc3cc(Cl)c(C)cc3[nH]2)c1 [Ex. 4.73]
15 nM,78 nM,Cc1nc(C(=O)N2CCC[C@@]2(C)c2nc3c(F)c(F)ccc3[nH]2)c(-c2cccc(Cl)c2)s1 [Ex. 5.207]
657 nM,769 nM,Cc1nc(C(=O)N2CCCC2c2nc3c(F)cccc3[nH]2)c(-c2cccc(Cl)c2)s1 (stereo not drawn) [Ex. 1.104]
74 nM,16 nM,C=C1C[C@@H](c2nc3cccc(C)c3[nH]2)N(C(=O)c2nc(C)sc2-c2cc(C)cc(C)c2)C1 [Ex. 6.107]
124 nM,5780 nM,COc1cc2nc([C@@H]3[C@@H](C)CCN3C(=O)c3c(-n4nccn4)ccc(OC)c3F)[nH]c2cc1OC [Ex. 4.45]
1 nM,1 nM,C=C1C[C@@H](c2nc3c(C)c(Cl)ccc3[nH]2)N(C(=O)c2nc(C)sc2-c2cccc(Cl)c2)C1 [Ex. 6.45]
59 nM,250 nM,COc1cc2nc([C@@H]3[C@@H](C)CCN3C(=O)c3cc(C)ccc3-n3cccn3)[nH]c2cc1OC [Ex. 4.57]
243 nM,18 nM,C=C1C[C@@H](c2nc3cc(OC)ccc3[nH]2)N(C(=O)c2nc(C)sc2-c2ccccc2)C1 [Ex. 6.3]
135 nM,56 nM,C=C1C[C@@H](c2nc3cc(OC)ccc3[nH]2)N(C(=O)c2cnc(C)nc2-c2cccc(C)c2)C1 [Ex. 6.11]
29 nM,3890 nM,Cc1nc(C(=O)N2CC[C@H](C)[C@H]2c2nc3ccccc3[nH]2)c(-c2cccc(Cl)c2)s1 [Ex. 4.6]
